According to PubChem BioAssay (NCI):
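1) Cells in 96-well plates. 2) Compound, 48 h, 5 concentrations. 3) Linear interpolation between surrounding doses. 4) Unreached endpoint = highest concentration. Abbreviation: GI50, concentration required for 50% inhibition of growth. TGI denotes the concentration required for complete inhibition of growth.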

Legend:
Experiment in all cases: NCI anticancer screen, dose series, 48 h
NCI/ADR-RES ovarian = test system: NCI/ADR-RES ovarian
NCI-H226 lung = test system: NCI-H226 lung
TK-10 renal = test system: TK-10 renal
LOX IMVI melanoma = test system: LOX IMVI melanoma
COLO 205 colon = test system: COLO 205 colon
DU-145 prostate = test system: DU-145 prostate
CAKI-1 renal = test system: CAKI-1 renal
HOP-62 NSCLC = test system: HOP-62 NSCLC
SF-539 CNS = test system: SF-539 CNS
KM12 colon = test system: KM12 colon
HCT-116 colon = test system: HCT-116 colon
UO-31 renal = test system: UO-31 renal
SK-OV-3 ovarian = test system: SK-OV-3 ovarian
OVCAR-3 ovarian = test system: OVCAR-3 ovarian
SK-MEL-28 melanoma = test system: SK-MEL-28 melanoma
UACC-62 melanoma = test system: UACC-62 melanoma
OVCAR-8 ovarian = test system: OVCAR-8 ovarian
MOLT-4 leukemia = test system: MOLT-4 leukemia
PC-3 prostate = test system: PC-3 prostate
786-0 renal = test system: 786-0 renal
SF-295 CNS = test system: SF-295 CNS
OVCAR-5 ovarian = test system: OVCAR-5 ovarian
EKVX NSCLC = test system: EKVX NSCLC
SK-MEL-5 melanoma = test system: SK-MEL-5 melanoma
HCT-15 colon = test system: HCT-15 colon
HOP-92 NSCLC = test system: HOP-92 NSCLC
NCI-H23 lung = test system: NCI-H23 lung
HS 578T breast = test system: HS 578T breast
SR leukemia = test system: SR leukemia

Q: `CCC(=O)c1c(C(F)(F)F)n([O-])c2ccccc2[n+]1=O` was tested. Which GI50 (NCI/ADR-RES ovarian) did it give?
A: 1.36 µM

Q: And the TGI (NCI/ADR-RES ovarian)?
A: 13.3 µM

Q: What about the GI50 (NCI-H226 lung) of the same compound?
A: 2.09 µM

Q: And the TGI (NCI-H226 lung)?
A: 9.06 µM

Q: What about the GI50 (TK-10 renal) of the same compound?
A: 2.81 µM

Q: What about the TGI (TK-10 renal) of the same compound?
A: 14.5 µM

Q: What about the GI50 (LOX IMVI melanoma) of the same compound?
A: 1.39 µM

Q: What about the TGI (LOX IMVI melanoma) of the same compound?
A: 3.38 µM

Q: And the GI50 (COLO 205 colon)?
A: 2.06 µM

Q: And the TGI (COLO 205 colon)?
A: 6.51 µM

Q: And the GI50 (DU-145 prostate)?
A: 1.59 µM

Q: And the TGI (DU-145 prostate)?
A: 3.27 µM

Q: And the GI50 (CAKI-1 renal)?
A: 1.54 µM

Q: What about the TGI (CAKI-1 renal) of the same compound?
A: 6.03 µM

Q: What about the GI50 (HOP-62 NSCLC) of the same compound?
A: 0.7 µM

Q: And the TGI (HOP-62 NSCLC)?
A: 3.54 µM

Q: And the GI50 (SF-539 CNS)?
A: 2.81 µM

Q: What about the TGI (SF-539 CNS) of the same compound?
A: 10.2 µM

Q: And the GI50 (KM12 colon)?
A: 1.86 µM

Q: And the TGI (KM12 colon)?
A: 5.86 µM

Q: What about the GI50 (HCT-116 colon) of the same compound?
A: 1.56 µM

Q: What about the TGI (HCT-116 colon) of the same compound?
A: 8.83 µM

Q: What about the GI50 (UO-31 renal) of the same compound?
A: 0.829 µM

Q: What about the TGI (UO-31 renal) of the same compound?
A: > 20.2 µM

Q: And the GI50 (SK-OV-3 ovarian)?
A: 3.05 µM

Q: And the TGI (SK-OV-3 ovarian)?
A: 14 µM

Q: What about the GI50 (OVCAR-3 ovarian) of the same compound?
A: 1.74 µM

Q: And the TGI (OVCAR-3 ovarian)?
A: 6.35 µM

Q: And the GI50 (SK-MEL-28 melanoma)?
A: 8.84 µM

Q: What about the TGI (SK-MEL-28 melanoma) of the same compound?
A: 44.6 µM

Q: What about the GI50 (UACC-62 melanoma) of the same compound?
A: 1.65 µM

Q: And the TGI (UACC-62 melanoma)?
A: 4.64 µM

Q: What about the GI50 (OVCAR-8 ovarian) of the same compound?
A: 1.77 µM

Q: What about the TGI (OVCAR-8 ovarian) of the same compound?
A: > 32 µM

Q: What about the GI50 (MOLT-4 leukemia) of the same compound?
A: 0.577 µM

Q: And the TGI (MOLT-4 leukemia)?
A: > 100 µM

Q: And the GI50 (PC-3 prostate)?
A: 0.629 µM

Q: What about the TGI (PC-3 prostate) of the same compound?
A: 5.34 µM

Q: And the GI50 (786-0 renal)?
A: 1.66 µM

Q: And the TGI (786-0 renal)?
A: 8.17 µM

Q: And the GI50 (SF-295 CNS)?
A: 1.59 µM

Q: What about the TGI (SF-295 CNS) of the same compound?
A: 7.29 µM

Q: And the GI50 (OVCAR-5 ovarian)?
A: 3.89 µM

Q: And the TGI (OVCAR-5 ovarian)?
A: 13.1 µM

Q: And the GI50 (EKVX NSCLC)?
A: 2 µM

Q: And the TGI (EKVX NSCLC)?
A: 7.32 µM

Q: What about the GI50 (SK-MEL-5 melanoma) of the same compound?
A: 0.961 µM

Q: What about the TGI (SK-MEL-5 melanoma) of the same compound?
A: 2.64 µM

Q: What about the GI50 (HCT-15 colon) of the same compound?
A: 1.09 µM

Q: What about the TGI (HCT-15 colon) of the same compound?
A: 4.88 µM

Q: And the GI50 (HOP-92 NSCLC)?
A: 1.5 µM

Q: And the TGI (HOP-92 NSCLC)?
A: 6.08 µM

Q: And the GI50 (NCI-H23 lung)?
A: 1.1 µM

Q: What about the TGI (NCI-H23 lung) of the same compound?
A: 4.37 µM

Q: What about the GI50 (HS 578T breast) of the same compound?
A: 3.17 µM

Q: And the TGI (HS 578T breast)?
A: 30.5 µM

Q: What about the GI50 (SR leukemia) of the same compound?
A: 0.193 µM

Q: What about the TGI (SR leukemia) of the same compound?
A: 10.3 µM
